We go through seven molecules from ChEMBL document CHEMBL3124787, “Discovery of novel bis-oxazolidinone compounds as potential potent and selective antitubercular agents” (Bioorg Med Chem Lett, 2014).

≈ marks a conversion by molar mass, not a printed value.

Data set [1] has as its system Staphylococcus aureus. Put plainly: Antibacterial activity against methicillin-susceptible Staphylococcus aureus ATCC 6538 assessed as growth inhibition after 18 hrs by broth microdilution method. It is filed as functional. To be noted: ATCC 6538, 18 h.
The next data set has as its system Pseudomonas aeruginosa. Put plainly: Antibacterial activity against Pseudomonas aeruginosa ATCC 27853 assessed as growth inhibition after 18 hrs by broth microdilution method. It is filed as functional. To be noted: ATCC 27853, 18 h.
Data set [2] deals with Mycobacterium tuberculosis. Put plainly: Antitubercular activity against Mycobacterium tuberculosis H37RV ATCC 27294 assessed as growth inhibition after 3 to 11 days by microdilution method. It is filed as functional.
A short description of data set [3]: Lipophilicity, log P of the compound by HPLC analysis. The format is physicochemical.
The subject of data set [4] is Staphylococcus aureus. As to the kind of experiment: Antibacterial activity against methicillin-resistant Staphylococcus aureus ATCC 33591 assessed as growth inhibition after 18 hrs by broth microdilution method. It is filed as functional. To be noted: ATCC 33591, 18 h.
Data set [5] relates to Mycolicibacterium smegmatis. Put plainly: Antibacterial activity against Mycobacterium smegmatis assessed as growth inhibition after 18 hrs by broth microdilution method. It is filed as functional.
The subject of data set [6] is Staphylococcus aureus. Put plainly: Antibacterial activity against methicillin-susceptible Staphylococcus aureus ATCC 25923 assessed as growth inhibition after 18 hrs by broth microdilution method. It is filed as functional. The conditions noted are these: ATCC 25923, 18 h.
A further data set has as its system Escherichia coli. Put plainly: Antibacterial activity against Escherichia coli ATCC 25922 assessed as growth inhibition after 18 hrs by broth microdilution method. It is filed as functional. To be noted: ATCC 25922, 18 h.
A short description of data set [7]: Aqueous solubility of the compound by HPLC analysis. The format is physicochemical.
Data set [8] deals with Staphylococcus aureus. As to the kind of experiment: Antibacterial activity against methicillin-susceptible Staphylococcus aureus CMCC 26003 assessed as growth inhibition after 18 hrs by broth microdilution method. The format is functional. The conditions noted are these: CMCC 26003, 18 h.
The subject of data set [9] is Staphylococcus aureus. As to the kind of experiment: Antibacterial activity against methicillin-resistant Staphylococcus aureus ATCC 43300 assessed as growth inhibition after 18 hrs by broth microdilution method. To be noted: ATCC 43300, 18 h. It is filed as functional.
Data set [10] deals with Staphylococcus aureus. Put plainly: Antibacterial activity against methicillin-susceptible Staphylococcus aureus ATCC 29213 assessed as growth inhibition after 18 hrs by broth microdilution method. It is filed as functional. The conditions noted are these: ATCC 29213, 18 h.
The test system of a further data set is Vero. As to the kind of experiment: Cytotoxicity against African green monkey Vero cells after 48 hrs by MTT assay. The conditions noted are these: Chlorocebus sabaeus. It is filed as cell-based.
The nature of data set [11]: Selectivity index, ratio of IC50 for African green monkey Vero cells to MIC for Mycobacterium tuberculosis H37RV ATCC 27294. The format is toxicity, cell-based. The conditions noted are these: read-out: Selectivity Index.

For `CC(=O)NC[C@H]1CN(c2ccc(OC[C@@H](O)CNc3ccccc3)c(F)c2)C(=O)O1`, the MIC99 was 4 µg/mL (≈ 9.58 µM) in the data set on Staphylococcus aureus [1]; above 32 µg/mL in the data set on Pseudomonas aeruginosa; 8 µg/mL (≈ 19.2 µM) with Staphylococcus aureus [4]; above 64 µg/mL in data set [5]; 8 µg/mL (≈ 19.2 µM) with Staphylococcus aureus [6]; above 32 µg/mL in the data set with Escherichia coli. In addition, the MIC99 in the data set with Staphylococcus aureus [8] was found to be 4 µg/mL (≈ 9.58 µM); in the data set on Staphylococcus aureus [9] it was 4 µg/mL (≈ 9.58 µM); in the data set with Staphylococcus aureus [10] it was 8 µg/mL (≈ 19.2 µM). Besides, the MIC in [2] was 8 µg/mL (≈ 19.2 µM). The molecule also yielded a log partition coefficient (logP) in data set [3] of 1.42. In addition, in data set [7], the solubility was found to be 124 µM (≈ 51.8 µg/mL).
In the case of `CC(=O)NC[C@H]1CN(c2ccc(N3CCOCC3)c(F)c2)C(=O)O1` [LINEZOLID], the MIC99 with Staphylococcus aureus [1] was 1 µg/mL (≈ 2.96 µM); in the data set with Pseudomonas aeruginosa, above 32 µg/mL; with Staphylococcus aureus [4], 2 µg/mL (≈ 5.93 µM); with Staphylococcus aureus [6], 2 µg/mL (≈ 5.93 µM); with Escherichia coli, above 32 µg/mL; in the data set with Staphylococcus aureus [8] it was 2 µg/mL (≈ 5.93 µM). Further, the MIC99 in the data set on Staphylococcus aureus [9] and in the data set on Staphylococcus aureus [10] was 2 µg/mL (≈ 5.93 µM) each time. The minimum inhibitory concentration (MIC) in data set [2] stood at 0.25 µg/mL (≈ 0.741 µM).
With `COc1ccc(NC[C@H](O)COc2ccc(N3C[C@H](CNC(C)=O)OC3=O)cc2F)cc1`, the MIC99 is 4 µg/mL (≈ 8.94 µM) with Staphylococcus aureus [1]; above 32 µg/mL in the data set with Pseudomonas aeruginosa; 16 µg/mL (≈ 35.8 µM) in the data set on Staphylococcus aureus [4]; 64 µg/mL (≈ 143 µM) in data set [5]; 8 µg/mL (≈ 17.9 µM) with Staphylococcus aureus [6]; above 32 µg/mL with Escherichia coli. Further, the MIC99 with Staphylococcus aureus [8] amounted to 4 µg/mL (≈ 8.94 µM); in the data set on Staphylococcus aureus [9] it was 8 µg/mL (≈ 17.9 µM); in the data set on Staphylococcus aureus [10], 8 µg/mL (≈ 17.9 µM). Also, the minimal inhibitory concentration (MIC) in data set [2] was 8 µg/mL (≈ 17.9 µM). In data set [3], the logP came out at 0.95. This molecule yielded a solubility in data set [7] of 56 µM (≈ 25.1 µg/mL).
For the molecule `CC(=O)NC[C@H]1CN(c2ccc(OC[C@H]3CN(c4ccccc4)C(=O)O3)c(F)c2)C(=O)O1`, the MIC99 in the data set with Staphylococcus aureus [1] is 4 µg/mL (≈ 9.02 µM); with Pseudomonas aeruginosa, above 32 µg/mL; with Staphylococcus aureus [4] it was 16 µg/mL (≈ 36.1 µM); in [5], 32 µg/mL (≈ 72.2 µM); in the data set with Staphylococcus aureus [6], 8 µg/mL (≈ 18 µM); in the data set with Escherichia coli it was above 32 µg/mL. For the same molecule, the MIC99 came to 4 µg/mL (≈ 9.02 µM) with Staphylococcus aureus [8], 8 µg/mL (≈ 18 µM) with Staphylococcus aureus [9] and 8 µg/mL (≈ 18 µM) in the data set on Staphylococcus aureus [10]. Also, the minimal inhibitory concentration (MIC) in data set [2] is 0.25 µg/mL (≈ 0.564 µM). Further, in the data set with Vero, the IC50 stood at 63.6 µg/mL (≈ 143 µM). Further, the logP in data set [3] came to 1.86. The molecule also registered a solubility in [7] of 164 µM (≈ 72.7 µg/mL). Besides, in [11], the selectivity ratio worked out at 254.
On to `COc1ccc(N2C[C@@H](COc3ccc(N4C[C@H](CNC(C)=O)OC4=O)cc3F)OC2=O)cc1`, for which the MIC99 was 8 µg/mL (≈ 16.9 µM) with Staphylococcus aureus [1]; above 32 µg/mL in the data set on Pseudomonas aeruginosa; 16 µg/mL (≈ 33.8 µM) in the data set on Staphylococcus aureus [4]; above 64 µg/mL in [5]; 16 µg/mL (≈ 33.8 µM) in the data set on Staphylococcus aureus [6]; above 32 µg/mL in the data set on Escherichia coli. Besides, the MIC99 was 8 µg/mL (≈ 16.9 µM) in the data set with Staphylococcus aureus [8], 16 µg/mL (≈ 33.8 µM) with Staphylococcus aureus [9] and 16 µg/mL (≈ 33.8 µM) with Staphylococcus aureus [10]. Also, the minimum inhibitory concentration (MIC) in data set [2] came out at 0.125 µg/mL (≈ 0.264 µM). The same molecule gave a concentration for half-maximal inhibition (IC50) with Vero of 19.1 µg/mL (≈ 40.3 µM). The log partition coefficient (logP) in [3] is 1.91. Besides, the concentration in solution in data set [7] (solubility) was 132 µM (≈ 62.5 µg/mL). Moreover, the selectivity ratio in [11] is 152.
For `CC(=O)NC[C@H]1CN(c2ccc(OC[C@@H]3CN(c4ccccc4)C(=O)O3)c(F)c2)C(=O)O1`, the MIC99 in the data set with Staphylococcus aureus [1] was 8 µg/mL (≈ 18 µM); with Pseudomonas aeruginosa it was above 32 µg/mL; in the data set with Staphylococcus aureus [4], 16 µg/mL (≈ 36.1 µM); in data set [5], above 64 µg/mL; with Staphylococcus aureus [6] it was 16 µg/mL (≈ 36.1 µM); in the data set with Escherichia coli, above 32 µg/mL. Further, the MIC99 in the data set with Staphylococcus aureus [8], in the data set with Staphylococcus aureus [9] and with Staphylococcus aureus [10] was 16 µg/mL (≈ 36.1 µM) throughout. Moreover, the minimal inhibitory concentration (MIC) in data set [2] stood at 0.125 µg/mL (≈ 0.282 µM). For the same molecule, the half-maximal inhibitory concentration (IC50) with Vero is above 5000 µg/mL. For the same molecule, the logP in data set [3] amounted to 1.78. This molecule also registered a solubility in [7] of 14 µM (≈ 6.21 µg/mL). The selectivity ratio in data set [11] was above 40000.
As for `COc1ccc(N2C[C@H](COc3ccc(N4C[C@H](CNC(C)=O)OC4=O)cc3F)OC2=O)cc1`, the MIC99 in the data set with Staphylococcus aureus [1] was 4 µg/mL (≈ 8.45 µM); with Pseudomonas aeruginosa, above 32 µg/mL; with Staphylococcus aureus [4], 8 µg/mL (≈ 16.9 µM); in [5] it was above 64 µg/mL; in the data set with Staphylococcus aureus [6], 8 µg/mL (≈ 16.9 µM); in the data set on Escherichia coli, above 32 µg/mL. Further, the MIC99 in the data set with Staphylococcus aureus [8] amounted to 4 µg/mL (≈ 8.45 µM); in the data set with Staphylococcus aureus [9], 4 µg/mL (≈ 8.45 µM); with Staphylococcus aureus [10], 8 µg/mL (≈ 16.9 µM). Also, the MIC in [2] was found to be 0.25 µg/mL (≈ 0.528 µM). Besides, the IC50 in the data set on Vero came out at 107 µg/mL (≈ 226 µM). Further, the log partition coefficient (logP) in data set [3] turned out to be 1.73. Moreover, the solubility in data set [7] was 211 µM (≈ 99.9 µg/mL). Besides, the selectivity ratio in data set [11] was 428.
